Structures are written as SMILES. “And” between values parts separate entries of the source, which are not always exact repeats. Identical values can stand only once. “Also recorded” adds a separate entry of the source.

Assay [1] relates to msP rats. Description: Acute voluntary ethanol intake, free choice 10% alcohol 24 hours a day. The class given is in vivo, rat. Particulars: for ethanol intake, drug alone (post-hoc): low dose given at 12 hours and 1 hour before access, partner drugs at doses of the examples; for ethanol intake in a pilot study: low dose: fluoxetine 3.0, mirtazapine 5.0, topiramate 30.0, levetiracetam 100.0, gabapentin 60.0 mg/kg OS, ondansetron 1.0, antalarmin […] IP. How it is done:
MsP rats were first trained to drink 10% (w/v) alcohol for 24 hours a day (free choice between water and ethanol). […] Before starting the treatment, rats were trained to gavage administration procedures for three days, during which they received vehicle (distilled water). […] Drinking experiments started at the beginning of the dark cycle. Alcohol, water and food intakes were monitored at 2, 8 and 24 hours after ethanol was made available.
Before starting the treatment, rats were trained to gavage and IP administration procedures for three days. Experiment was conducted in a between subject design (n=22). […] Drinking experiments started at the beginning of the dark cycle. Alcohol, water and food intakes were monitored at 2, 8 and 24 hours after ethanol was made available.
The drinking experiments were conducted at the beginning of the dark cycle, and alcohol, water and food intakes were monitored at 2, 8 and 24 hours after ethanol was made available.
MsP rats were first trained to drink 10% (w/v) alcohol for 24 hours a day (free choice between water and ethanol). […] Rats treated with drug vehicles served as a control. Before starting the treatment, rats were trained to gavage administration for three days, during which they received drugs vehicle (distilled water). […] Drinking experiments started at the beginning of the dark cycle. Alcohol, water, and food intakes were monitored at 2, 8 and 24 hours after ethanol was made available.
(§1) MsP rats were first trained to drink 10% (w/v) alcohol for 24 hours a day (free choice between water and ethanol). […] Rats treated with drug vehicles served as a control. Before starting the treatment, rats were trained to gavage administration for three days, during which they received drugs vehicle (distilled water). […] Drinking experiments started at the beginning of the dark cycle. Alcohol, water and food intakes were monitored at 2, 8 and 24 hours after ethanol was made available.
as §1, §1, §1, §1

Assay [2] deals with heavy tobacco smokers. Put plainly: Pilot clinical study in heavy tobacco smokers. It counts as in vivo, human.
Assay [3] has as its system heavy tobacco smokers. Description: Pilot clinical study in heavy tobacco smokers. The following applies: for Percent inhibition of smoking: baseline data expressed as 100%: T = 0, smoking before entering the treatment; for Percent inhibition of smoking: baseline data expressed as 100% / Percent inhibition of smoking: individual patients; for craving score (visual analogic craving scale): over treatment. It counts as in vivo, human. Also noted: overall smoking reduction / inhibition of smoking prior to dropping out: concentration or dose not given beside the values. How it is done:
Data were recorded for two months, during which patients were seen by the physician every other week. Patients were instructed to record in a personal logbook the number of cigarettes per day and the time of the day smoking occurred. At the end of the study, the logbooks were returned to the clinical personnel who analyzed the data. […] During the first month of treatment, every two weeks, ACTH and cortisol levels were also monitored to evaluate HPA activation before and during treatment.

In the next assay the test system is alcoholic patients. Put plainly: Observational study of alcohol abuse in human patients. The class given is in vivo. An excerpt: ACT)+psychotherapy. […] Patients were instructed to record in a personal logbook the number of drinks per day and the time of the day drinks occurred. At the end of the study, the logbooks were returned to the clinical personnel who analyzed the data. […] In addition, biochemical parameters to ascertain alcohol detoxification and to measure recovery of physiological functions (i.e., hepatic function) were monitored monthly. Hematological parameters measured included: mean corpuscular volume (MCV); gamma-GT; aspartate aminotransferase (AST); alanine aminotransferase (ALT); and carbohydrate-deficient transferring (CDT). MCV and CDT are biomarkers for ethanol consumption, and GGT, ALT and AST are biomarkers for hepatic functionality. Data were analyzed by analysis of variance followed by Newman-Keuls post hoc tests when appropriate.

The subject of assay [4] is Marchigian Sardinian alcohol-preferring (msP) rats. Description: Subchronic (7 days) voluntary ethanol intake, 10% alcohol available 24 hours/day. Particulars: 7 days; naltrexone […] IP alone or with pioglitazone 10.0 or 30.0 mg/kg OS. The class given is in vivo, rat. As for the experimental part: (§2) At the beginning of the experiments, msP rats were allowed free choice between water and 10% (v/v) alcohol 24 h/day for at least 15 days. The fluids were offered in graduated drinking tubes equipped with metallic drinking spouts. The position (to the right or left) of alcohol and water drinking tubes was changed daily to avoid the development of side preference. Water and food were available ad libitum, while alcohol access was either restricted to 2 hours/day (Examples 1 and 2) or was available 24 hours/day (Examples 3 and 4). Alcohol, water and food intakes were measured.
(§3) […]. Before starting the treatment, rats were trained to gavage administration procedures for three days, during which they received vehicle (distilled water).
Alcohol, water and food intakes were monitored at 2, 8 and 24 hours. Fluids and food intakes were monitored for three additional days after the end of the drug treatment period.
[…]. According to a between-subject design, four groups of msP rats (N=9/group) were prepared as described in Example 3. […] […]. Alcohol, water and food intakes were monitored at 2, 8 and 24 hours. Fluids and food intakes were monitored for three additional days after the end of the drug treatment period.

For assay [5], the system named is msP rats. Description: Cue-induced reinstatement of alcohol seeking. It counts as in vivo, rat. Particulars: naltrexone 0.25 and 1.0 mg/kg 1 hour before test.
Experimental: Cue-induced reinstatement of alcohol-seeking behaviour experimental procedures consisted of three phases: (1) conditioning phase; (2) extinction phase; and (3) reinstatement phase, as described below.
For the conditioning phase, at the completion of the fading procedure (see above), in 30 min daily sessions, animals were trained to discriminate between 10% alcohol and water. Beginning with self-administration training at the 10% alcohol concentration, discriminative stimuli (SD) predictive of alcohol versus water availability were presented during the alcohol and water self-administration sessions, respectively. The discriminative stimulus for alcohol consisted of the odour of an orange extract (S^+) whereas water availability (i.e. no reward) was signalled by an anise extract (S^−). The olfactory stimuli were generated by depositing six to eight drops of the respective extract into the bedding of the operant chamber. In addition, each lever-press resulting in delivery of alcohol was paired with illumination of the chamber's house light for 5 sec (CS^+). The corresponding cue during water sessions was a 5 second tone (70 dB) (CS). Concurrently with the presentation of these stimuli, a 5 sec. time-out period was in effect, during which responses were recorded but not reinforced. The olfactory stimuli serving as S^+ or S^− for alcohol availability were introduced one minute before extension of the levers and remained present throughout the 30-min. sessions. The bedding of the chamber was changed and bedding trays were cleaned between sessions. During the first three days of the conditioning phase, the rats were given alcohol sessions only. Subsequently, alcohol and water sessions were conducted in random order across training days, with the constraint that all rats received a total of 10 alcohol and 10 water sessions.
For the extinction phase, after the last conditioning day, rats were subjected to 30-min extinction sessions for 15 consecutive days. During this phase, sessions began by extension of the levers without presentation of the SD. […]
Assay [6] deals with msP rats. Put plainly: Yohimbine-induced (stress) reinstatement of alcohol seeking. Particulars: naltrexone 0.25 and 1.0 mg/kg IP 1 hour before test.
Text: Stress-induced reinstatement of alcohol-seeking experimental procedures consisted of three phases: (1) training phase; (2) extinction phase; and (3) reinstatement phase, as described below.
For the training phase, after completion of the fading procedure, msP rats were trained to self-administer 10% (v/v) alcohol for 15 days in 30-min daily sessions under a FR1 schedule of reinforcement. During the infusion, a stimulus house light was turned on for 5 s (time out; TO).
For the extinction phase, after the last alcohol self-administration session, animals were subjected to 30-min extinction sessions for 15 consecutive days.
The day after the last extinction session, rats were subjected to the reinstatement test.
Animals received all drug treatments according to a counterbalance Latin square design. A 3-day interval, during which animals were subjected to extinction sessions, was allowed between drug tests.
Assay [7] relates to Marchigian Sardinian alcohol-preferring (msP) rats. Description: Acute voluntary ethanol intake, alcohol access restricted to 2 hours/day. It counts as in vivo, rat. As for the experimental part:
as §2
. After acquisition of a stable baseline of ethanol intake (6-8 g/kg bw; daily), alcohol access was restricted to 2 hours a day at the beginning of the dark phase. Water and food were freely available.
as §3
Treatments were carried out at intervals of at least three days. […] Drinking experiments were conducted right at the beginning of the dark cycle. Alcohol, water and food intakes were monitored at 30, 60, 90 and 120 minutes after ethanol was made available.
The msP rats (n=8) were prepared for the study as described in Example 1. After acquisition of a stable baseline of ethanol intake, alcohol access was restricted to 2 hours a day at the beginning of the dark phase. Water and food were freely available. […]. The experiment was conducted using a within subject counterbalanced Latine square design where each animal received all drug doses.
These experiments were conducted at the beginning of the dark cycle and alcohol, and water and food intakes were monitored at 30, 60, 90 and 120 minutes after ethanol was made available.

Another assay concerns Long Evans rats. Description: Yohimbine-induced reinstatement of nicotine seeking. The class given is in vivo, rat. Particulars: yohimbine 2.0 mg/kg/ml; p<0.001. As for the experimental part: Stress and anxiety are major factors in resuming nicotine use in former abstinent users. […] Reinstatement experiments and relative drug treatments were performed every third day. Between reinstatements, extinction baseline was re-established.

Where [8] appears, read: pioglitazone 30 mg/day or naltrexone 50 mg/day + psychotherapy.

As for `O=C(Nc1ccccc1)c1cc([N+](=O)[O-])ccc1Cl` [GW9662], in the assay on msP rats [1] (GW9662 5 μg/rat ICV alone), the ethanol intake result was “did not significantly affect”. Besides, in the assay with msP rats [1] (GW9662 1.0 and 5.0 mg/kg IP with pioglitazone 30 mg/kg OS), the “pioglitazone-induced reduction of ethanol intake” value was “blocked the effect of pioglitazone in a dose related manner”. Moreover, the ethanol drinking entry with msP rats [1] (GW9662 alone, 1.0 and 5.0 mg/kg IP) was “did not modify”.

As to `CCCCN(CC)c1nc(C)nc2c1c(C)c(C)n2-c1c(C)cc(C)cc1C` [antalarmin], in the assay on msP rats [1] (pioglitazone 10 mg/kg OS), the “ethanol intake, drug alone (post-hoc)” value is given as “did not significantly modify”. In addition, the “ethanol intake in a pilot study” value in the assay with msP rats [1] was “modestly reduced”.

As for `CC(NC(C)(C)C)C(=O)c1cccc(Cl)c1` (stereo not shown) [bupropione], the “Percent inhibition of smoking” value in the assay with heavy tobacco smokers [2] (T = 10 weeks, individual patients, listed as Bup) was 40% and 45%; in the assay on heavy tobacco smokers [3] (T = 2 weeks of treatment, Pio 15-30 mg/daily, Var 0.5 to 2.0 mg/day) it was 100%; in the assay with heavy tobacco smokers [3] (T = 4 weeks, listed as Bup) it was 20% and 18% and 15%; in the assay on heavy tobacco smokers [3] (T = 6 weeks, listed as Bup) it was 28% and 20% and 21%; in the assay with heavy tobacco smokers [3] (T = 8 weeks), 34%. For the same compound, the smoking reduced result in the assay with heavy tobacco smokers [2] (two bupropione patients after 10 weeks of drug administration) is “about 40%”. Moreover, the “Percent inhibition of smoking: baseline data expressed as 100%” value in the assay on heavy tobacco smokers [3] is 100%. Moreover, in the assay with heavy tobacco smokers [3] (bupropione patient who dropped out after four weeks), the “inhibition of smoking prior to dropping out” value was determined as 20%. The “craving score (visual analogic craving scale)” value with heavy tobacco smokers [3] was “less effective”.

For `CNCCC(Oc1ccc(C(F)(F)F)cc1)c1ccccc1` (stereo not shown) [fluoxetine], the “ethanol intake, drug alone (post-hoc)” value in the assay on msP rats [1] (pioglitazone 10 mg/kg OS) is reported as “did not significantly modify”. The “ethanol intake in a pilot study” value in the assay on msP rats [1] is listed as “did not reduce ethanol intake”.

Regarding `NCC1(CC(=O)O)CCCCC1` [gabapentin], the “ethanol intake, drug alone (post-hoc)” value with msP rats [1] (pioglitazone 10 mg/kg OS) is reported as “did not significantly modify”. In the assay with msP rats [1], the “ethanol intake in a pilot study” value is “did not reduce ethanol intake”.

Take `CC[C@@H](C(N)=O)N1CCCC1=O` [levetiracetam]: the “ethanol intake, drug alone (post-hoc)” value in the assay on msP rats [1] (pioglitazone 10 mg/kg OS) is reported as “did not significantly modify”. In addition, the “ethanol intake in a pilot study” value in the assay with msP rats [1] is reported as “did not reduce ethanol intake”.

Regarding `CN1CCN2c3ncccc3Cc3ccccc3C2C1` (stereo not shown) [mirtazapine], the “ethanol intake, drug alone (post-hoc)” value in the assay on msP rats [1] (pioglitazone 10 mg/kg OS) is on record as “did not significantly modify”. In the assay on msP rats [1], the “ethanol intake in a pilot study” value is recorded as “did not reduce ethanol intake”.

Take `O=C1CC[C@@]2(O)[C@H]3Cc4ccc(O)c5c4[C@@]2(CCN3CC2CC2)[C@H]1O5` [naltrexone]: the “hepatic parameters (GGT, ALT, AST)” value in the assay with alcoholic patients (2-month treatment) was “ameliorated”. Further, the “Depression Scale M.A.D.R.S (mean score values)” value is 18 with alcoholic patients (T = 1.2); 16 with alcoholic patients (T = 1.3); 17 in the assay on alcoholic patients (T = 1.4); 17 in the assay on alcoholic patients (T = 2.1); 15 in the assay with alcoholic patients (T = 2.2). Also, the “effect on daily drinks, comparison of drugs” value with alcoholic patients (first two weeks of treatment, P<0.05) is “more effective than pioglitazone”. Also, the “daily ethanol intake (number of daily drinks)” value in the assay on alcoholic patients (setting [8]) was “significantly reduced”. Moreover, the “number of abstinence days” value with alcoholic patients (setting [8]) is listed as “increased”. The OCDS versus controls entry in the assay on alcoholic patients (post hoc, P<0.001) is recorded as “statistically significant difference”. In addition, the “all five blood biomarkers versus controls (psychotherapy alone)” value with alcoholic patients (post hoc, P<0.001) is “statistical difference”. Besides, the “ethanol intake at 8 and 24 hours” value in assay [4] was “not at 8 and 24 hours”. In [4], the “ethanol intake at 2 hours” value is “significantly reduced”. Further, the “voluntary ethanol intake, overall” value in assay [4] is listed as “significantly reduced”. Also, the “cue-induced (conditioned) reinstatement of alcohol-seeking” value with msP rats [5] is “significantly reduced”. Besides, in the assay with msP rats [6], the “yohimbine-induced reinstatement of alcohol seeking” value is “did not significantly reduce; also recorded: not modified”. For the same compound, the “ethanol intake at 120 minutes” value in [7] (naltrexone […] IP alone or with pioglitazone 10 mg/kg OS) is given as “did not show significant effects”. Further, the “ethanol intake at 30, 60, and 90 minutes” value in assay [7] (naltrexone […] IP alone or with pioglitazone 10.0 or 30.0 mg/kg OS) is “significantly reduced”.

As for `Cc1nccn1CC1CCc2c(c3ccccc3n2C)C1=O` (stereo not shown) [ondansetron], the “ethanol intake, drug alone (post-hoc)” value in the assay on msP rats [1] (pioglitazone 10 mg/kg OS) is given as “did not significantly modify”. Besides, the “ethanol intake in a pilot study” value in the assay on msP rats [1] is recorded as “did not reduce ethanol intake”.

Turning to `CC1(C)O[C@@H]2[C@@H](CO[C@@]3(COS(N)(=O)=O)OC(C)(C)O[C@@H]23)O1` [topiramate], in the assay on msP rats [1] (pioglitazone 10 mg/kg OS), the “ethanol intake, drug alone (post-hoc)” value was “did not significantly modify”. For the same compound, the “ethanol intake in a pilot study” value in the assay on msP rats [1] is reported as “did not reduce ethanol intake”. Also, the “ethanol intake at 2 hours, drug alone” value in the assay with msP rats [1] (pioglitazone 10 mg/kg OS, topiramate 30.0 mg/kg OS, p<0.05) was “significant reduction”.

With `c1cnc2cc3c(cc2n1)[C@@H]1CNC[C@H]3C1` [varenicline], in the assay with heavy tobacco smokers [3], the “Percent inhibition of smoking: baseline data expressed as 100%” value was found to be 100% and the “craving score (visual analogic craving scale)” value was “highest reduction”. Moreover, in the assay on heavy tobacco smokers [3] (over treatment weeks), the STAI anxiety score result is recorded as “significantly reduced”. For the same compound, the “weekly smoked cigarettes compared to bupropione (post hoc)” value in the assay on heavy tobacco smokers [3] (p<0.05) is on record as “significant difference”. Also, the “subjects reaching complete abstinence” value in the assay on heavy tobacco smokers [3] (pioglitazone 4 patients, varenicline 3 patients) was “one”. The overall smoking reduction with heavy tobacco smokers [3] (three participants receiving varenicline) came out at 95%.

Turning to `COC(=O)[C@@H]1[C@H]2C[C@H]3c4[nH]c5ccccc5c4CCN3C[C@@H]2CC[C@@H]1O` [yohimbine], the “reinstatement of responding compared to extinction” value in the assay with Long Evans rats is listed as “significant reinstatement”.
